Assay: log P (Table 1)
Type: physicochemical

| logP | log P | SMILES |
| --- | --- | --- |
| 5.1 | – | CCCc1nc2ccc(N(CCC)C(=O)OCC(C)C)cc2c(=O)n1Cc1ccc(-c2ccccc2-c2nnn[nH]2)cc1 [Example 10] |
| 5 | – | CCCOC(=O)N(Cc1ccccc1)c1ccc2nc(CCC)n(Cc3ccc(-c4ccccc4-c4nnn[nH]4)cc3)c(=O)c2c1 [Example 17] |
| 6 | – | CCCCOC(=O)N(CCCC)c1ccc2nc(CCC)n(Cc3ccc(-c4ccccc4-c4nn[nH]n4)cc3)c(=O)c2c1 [Example 24] |
| 4.3 | – | CCCc1nc2ccc(N(Cc3ccccc3)C(=O)N(C)CC)cc2c(=O)n1Cc1ccc(-c2ccccc2-c2nn[nH]n2)cc1 [Example 30] |
| 5.1 | – | CCCCCN(C(=O)c1ccccc1)c1ccc2nc(CCC)n(Cc3ccc(-c4ccccc4-c4nn[nH]n4)cc3)c(=O)c2c1 [Example 33, 2-propyl-6-(N-benzoyl-N-pentyl)-amino-3[(2'-(tetrazol-5-yl)biphen-4-yl)methyl]quinazolin-4(3H)-one] |
| 4.3 | – | CCCCCN(C(=O)c1ccncc1)c1ccc2nc(CCC)n(Cc3ccc(-c4ccccc4-c4nnn[nH]4)cc3)c(=O)c2c1 [Example 35] |
| 4.5 | – | CCCc1nc2ccc(N(Cc3ccccc3)C(=O)c3ccccc3)cc2c(=O)n1Cc1ccc(-c2ccccc2-c2nn[nH]n2)cc1 [Example 36] |
| > 6 | – | CCCCCN(C(=O)c1ccc(Cl)cc1)c1ccc2nc(CCC)n(Cc3ccc(-c4ccccc4-c4nn[nH]n4)cc3)c(=O)c2c1 [Example 37] |
| 5.4 | – | CCCCC(=O)N(Cc1ccccc1)c1ccc2nc(CCC)n(Cc3ccc(-c4ccccc4-c4nn[nH]n4)cc3)c(=O)c2c1 [Example 42] |
| 5.2 | – | CCCCCN(C(=O)c1ccc(F)cc1)c1ccc2nc(CCC)n(Cc3ccc(-c4ccccc4-c4nn[nH]n4)cc3)c(=O)c2c1 [Example 43] |
| 4.7 | – | CCCCN(C(=O)c1ccc(F)cc1)c1ccc2nc(CCC)n(Cc3ccc(-c4ccccc4-c4nn[nH]n4)cc3)c(=O)c2c1 [Example 44] |
| 4.7 | – | CCCc1nc2ccc(N(Cc3ccccc3)C(=O)OCC)cc2c(=O)n1Cc1ccc(-c2ccccc2-c2nn[nH]n2)cc1 [Example 56] |
| 4.1 | – | CCc1nc2ccc(N(Cc3ccccc3)C(=O)c3ccccc3)cc2c(=O)n1Cc1ccc(-c2ccccc2-c2nnn[nH]2)cc1 [Example 57] |
| 4.1 | – | CCCCN(C(=O)c1ccncc1)c1ccc2nc(CCC)n(Cc3ccc(-c4ccccc4-c4nn[nH]n4)cc3)c(=O)c2c1 [Example 68] |
| – | 3.5 | Cc1nc2ccc(N(Cc3ccccc3)C(=O)c3ccccc3)cc2c(=O)n1Cc1ccc(-c2ccccc2-c2nnn[nH]2)cc1 [Example 69] |
| – | 4.5 | CC(C)c1nc2ccc(N(Cc3ccccc3)C(=O)c3ccccc3)cc2c(=O)n1Cc1ccc(-c2ccccc2-c2nnn[nH]2)cc1 [Example 70] |
| 4.3 | – | CCCCCN(C(=O)c1cccnc1)c1ccc2nc(CCC)n(Cc3ccc(-c4ccccc4-c4nn[nH]n4)cc3)c(=O)c2c1 [Example 72] |
| 5.3 | – | CCCCCN(C(=O)c1ccccc1)c1ccc2nc(CCC)n(Cc3ccc(-c4ccccc4S(=O)(=O)NC(=O)C4CC4)cc3)c(=O)c2c1 [Example 73] |
| 5.5 | – | CCCCCN(C(=O)c1ccccc1)c1ccc2nc(CCC)n(Cc3ccc(-c4ccccc4S(=O)(=O)NC(=O)c4ccccc4)cc3)c(=O)c2c1 [Example 74] |
| – | 3.4 | CCc1nc2ccc(N(Cc3ccccc3)C(=O)c3ccncc3)cc2c(=O)n1Cc1ccc(-c2ccccc2-c2nn[nH]n2)cc1 [Example 75] |
| 4.3 | – | CCCCCN(C(=O)c1ccc([S+](C)[O-])cc1)c1ccc2nc(CCC)n(Cc3ccc(-c4ccccc4-c4nn[nH]n4)cc3)c(=O)c2c1 (centres unmarked) [Example 81] |
| 4.4 | – | CCCCCN(C(=O)c1ccc(S(C)(=O)=O)cc1)c1ccc2nc(CCC)n(Cc3ccc(-c4ccccc4-c4nn[nH]n4)cc3)c(=O)c2c1 [Example 83] |

| logP | log P | SMILES |
| --- | --- | --- |
| 4.4 | – | CCc1nc2ccc(N(Cc3ccccc3Cl)C(=O)c3ccccc3)cc2c(=O)n1Cc1ccc(-c2ccccc2-c2nn[nH]n2)cc1 [Example 84] |
| – | 4.2 | CCc1nc2ccc(N(CC=C(C)C)C(=O)c3ccccc3)cc2c(=O)n1Cc1ccc(-c2ccccc2-c2nn[nH]n2)cc1 [Example 85] |
| 4.3 | – | CCCc1nc2ccc(N(CCC)C(=O)c3ccc(F)cc3)cc2c(=O)n1Cc1ccc(-c2ccccc2-c2nn[nH]n2)cc1 [Example 90] |
| 4.8 | – | CC(C)c1nc2ccc(N(Cc3ccccc3Cl)C(=O)C3CC3)cc2c(=O)n1Cc1ccc(-c2ccccc2-c2nn[nH]n2)cc1 [Example 94] |
| 3.3 | – | O=C(c1ccccc1)N(Cc1ccccc1)c1ccc2ncn(Cc3ccc(-c4ccccc4-c4nn[nH]n4)cc3)c(=O)c2c1 [Example 95] |
| 4.9 | – | CCC(C)c1nc2ccc(N(Cc3ccccc3)C(=O)c3ccccc3)cc2c(=O)n1Cc1ccc(-c2ccccc2-c2nn[nH]n2)cc1 (centres unmarked) [Example 100] |
| 4.5 | – | CCCc1nc2ccc(N(CC(C)C)C(=O)c3ccccc3)cc2c(=O)n1Cc1ccc(-c2ccccc2-c2nnn[nH]2)cc1 [Example 102] |
| 4.1 | – | CCCc1nc2ccc(N(CCCC(=O)OCC)C(=O)c3ccccc3)cc2c(=O)n1Cc1ccc(-c2ccccc2-c2nnn[nH]2)cc1 [Example 103] |
| 5.7 | – | CCCCCN(C(=O)c1ccccc1)c1ccc2nc(CCC)n(Cc3ccc(-c4ccccc4NS(=O)(=O)C(F)(F)F)cc3)c(=O)c2c1 [Example 104] |
| 2.3 | – | CCCc1nc2ccc(N(CCCC(=O)O)C(=O)c3ccccc3)cc2c(=O)n1Cc1ccc(-c2ccccc2-c2nnn[nH]2)cc1 [Example 105] |
| 3.8 | – | Cc1nc2ccc(N(Cc3ccccc3Cl)C(=O)c3ccccc3)cc2c(=O)n1Cc1ccc(-c2ccccc2-c2nn[nH]n2)cc1 [Example 106] |
| 2.9 | – | Cc1nc2ccc(N(Cc3ccccc3)C(=O)c3ccncc3)cc2c(=O)n1Cc1ccc(-c2ccccc2-c2nnn[nH]2)cc1 [Example 107] |
| 2.9 | – | CCCc1nc2ccc(N(C)C(C)=O)cc2c(=O)n1Cc1ccc(-c2ccccc2S(=O)(=O)NC(=O)C2CC2)cc1 [Example 108] |
| 3.1 | – | Cc1nc2ccc(N(Cc3ccccc3Cl)C(=O)c3ccncc3)cc2c(=O)n1Cc1ccc(-c2ccccc2-c2nnn[nH]2)cc1 [Example 110] |
| 5 | – | CCc1nc2ccc(N(Cc3ccc(I)cc3)C(=O)c3ccccc3)cc2c(=O)n1Cc1ccc(-c2ccccc2-c2nnn[nH]2)cc1 [Example 112] |
| 5.1 | – | CCCCCN(C(=O)c1cccs1)c1ccc2nc(CCC)n(Cc3ccc(-c4ccccc4-c4nnn[nH]4)cc3)c(=O)c2c1 [Example 113] |
| 3.4 | – | CCCc1nc2ccc(N(C)C(=O)c3cccs3)cc2c(=O)n1Cc1ccc(-c2ccccc2-c2nnn[nH]2)cc1 [Example 114] |
| 4.6 | – | CCc1nc2ccc(N(Cc3ccccc3I)C(=O)c3ccccc3)cc2c(=O)n1Cc1ccc(-c2ccccc2-c2nn[nH]n2)cc1 [Example 117] |
| – | 4.1 | CCc1nc2ccc(N(Cc3ccccc3)C(=O)c3cccs3)cc2c(=O)n1Cc1ccc(-c2ccccc2-c2nn[nH]n2)cc1 [Example 118] |
| 3 | – | CCCc1nc2ccc(N(CCOC)C(=O)c3ccncc3)cc2c(=O)n1Cc1ccc(-c2ccccc2-c2nnn[nH]2)cc1 [Example 119] |
| 2.1 | – | CCCc1nc2ccc(N(CC(=O)O)C(=O)c3ccccc3)cc2c(=O)n1Cc1ccc(-c2ccccc2-c2nnn[nH]2)cc1 [Example 120] |
| 4.6 | – | CCCCCN(C(=O)c1ccc(Cl)cc1)c1ccc2nc(COC)n(Cc3ccc(-c4ccccc4-c4nnn[nH]4)cc3)c(=O)c2c1 [Example 121] |

— patent publication US5385894A, “Disubstituted 6-aminoquinazolinones” (Merck & Co., Inc., priority 1994, dated 1995)
